Experiment [1] concerns bitter taste. As to conditions: in vivo; cited from earlier work.
The test system of experiment [2] is bitter taste of caffeine. Nature of the experiment: Bitter intensity ranking with Glypyridaine: caffeine. The experiment is classed as in vivo. The settings on record: scale 0-5. An excerpt: (§1) Instead of working with low concentrated solutions at the bitter threshold, another series of experiments use carried out using more concentrated solutions of various bitter compounds to evaluate the bitter-blocking properties of Pyridinium-Betaines based on non-chiral amino acids. […] The bitter-reducing effect was most pronounced with L-Phenylalanine, the dipeptide H-Gly-Leu-OH, and caffeine.

Experiment [3] concerns bitter taste of L-phenylalanine. Nature of the experiment: Bitter-blocking effect on L-phenylalanine (detection threshold, 1/1 mixtures). The settings on record: for own taste: Pyridinium-Betaine alone; for Taste quality: conc. 32 mmol/L, mixtures 1/1 with L-Phe. It is filed as in vivo. As to the method: • Sensory panel training: […] Sensory analyses were performed in a sensory panel room at 22-25° C. on three different sessions. • Taste thresholds: The taste thresholds of the tastants or mixtures containing basic tastants plus Pyridinium-Betains were determined in a triangle test using Evian® mineral water as the solvent at a defined pH ([…] and H.-D. Belitz, Z. Lebensm. Unters. Forsch. 1975, 159, 65-72). The samples (3 mL) were presented in order of increasing concentrations (serial 1:1 dilutions). The threshold values evaluated in two different sessions were averaged. […] The taste intensities of aqueous (Evian®) solutions containing a basic tastant, such as glucose and MSG, for example, in constant concentrations and the compounds of the general formula (A), for example […], in various concentrations were compared with those of a solution containing the basic tastant only. To achieve this, triangle tests were performed with two glass vials containing the basic tastant in constant concentrations, and one glass vial containing a stepwise 1:1-diluted mixture of basic […]. […] The relative taste strength (taste enhancing factor) of a mixture containing the basic […] was related to the basic tastants glucose, MSG, or other tastants, respectively, as standard substances, and was determined as the ratio of the concentrations c of iso-intensely tasting solutions of the basic tastant, such as glucose (glc), and the mixture containing tastant plus Pyridinium-Betain, […])=[…] […] This taste enhancing effect is illustrated in examples. The tasteless Pyridinium-Betaines […] and Gabapyridaine, built from non-[…] amino acids, were tested for their bitter-blocking activity on L-phenylalanine.

Experiment [4] has as its system salty taste of NaCl. Kind of experiment: Salt taste detection threshold of NaCl/Pyridinium-Betaine mixtures (triangle test, sensory panel). It is filed as in vivo. Here is the method:
• Sensory panel training: […] Sensory analyses were performed in a sensory panel room at 22-25° C. on three different sessions. • Taste thresholds: The taste thresholds of the tastants or mixtures containing basic tastants plus Pyridinium-Betains were determined in a triangle test using Evian® mineral water as the solvent at a defined pH ([…] and H.-D. Belitz, Z. Lebensm. Unters. Forsch. 1975, 159, 65-72). The samples (3 mL) were presented in order of increasing concentrations (serial 1:1 dilutions). The threshold values evaluated in two different sessions were averaged. […] The taste intensities of aqueous (Evian®) solutions containing a basic tastant, such as glucose and MSG, for example, in constant concentrations and the compounds of the general formula (A), for example […], in various concentrations were compared with those of a solution containing the basic tastant only. […] The relative taste strength (taste enhancing factor) of a mixture containing the basic […] was related to the basic tastants glucose, MSG, or other tastants, respectively, as standard substances, and was determined as the ratio of the concentrations c of iso-intensely tasting solutions of the basic tastant, such as glucose (glc), and the mixture containing tastant plus Pyridinium-Betain, […])=[…] […] This taste enhancing effect is illustrated in examples.

In experiment [5] the test system is bitter taste of L-phenylalanine. Nature of the experiment: Bitter intensity ranking with Glypyridaine: L-Phenylalanine. It is filed as in vivo.
Description: as §1

For experiment [6], the system named is bitter taste of naringine. Kind of experiment: Bitter intensity ranking with Glypyridaine: naringine. It is filed as in vivo. The settings on record: scale 0-5.
Description: as §1

Experiment [7] deals with bitter taste of coffee brew. Nature of the experiment: Bitterness reduction of coffee with Glypyridaine. It is filed as in vivo. The settings on record: coffee brew 40 g/L plus 2.0 mmol/L Glypyridaine; coffee alone 5; scale 0 (no bitterness) to 5 (very bitter).
Experiment [8] relates to bitter taste of salicine. Kind of experiment: Bitter intensity ranking with Glypyridaine: salicine. As to conditions: scale 0-5. It is filed as in vivo.
Description: as §1

Experiment [9] deals with bitter taste of H-Gly-Leu-OH. Kind of experiment: Bitter intensity ranking with Glypyridaine: H-Gly-Leu-OH. It is filed as in vivo. As to conditions: scale 0-5. An excerpt:
Instead of working with low concentrated solutions at the bitter threshold, another series of experiments use carried out using more concentrated solutions of various bitter compounds to evaluate the bitter-blocking properties of Pyridinium-Betaines based on non-chiral amino acids. […] The bitter-reducing effect was most pronounced with L-Phenylalanine, the dipeptide H-Gly-Leu-OH, and caffeine. For example the 10:1 mixture of L-Phenylalanine and […] was weaker in bitterness (score 3) as compared to pure L-Phenylalanine (score 5).

Experiment [10] relates to salty taste of NaCl. Kind of experiment: Salt-intensity ranking of NaCl/Pyridinium-Betaine mixtures by sensory panel. The experiment is classed as in vivo. As to conditions: 20 mmol/L each, pH 7.0; for Salt-intensity: scale 0 (not salty) to 5 (very salty), reference NaCl-solution ranked as 1. An excerpt:
The salt-intensities of various NaCl/Pyridinium-Betaine mixtures (20 mmol/L each) were compared to a 20 mmol/L NaCl standard solution. The sensory panel was asked to rank the salt-intensities of these solutions on a scale from 0 (not salty) to 5 (very salty), while the reference NaCl-solution was ranked as 1. As listed in Table 6, the most intense salty taste was found in the solution containing NaCl and Alapyridaine, as well as in the triple mixture with L-arginine. A slight impact was found for Argpyridaine and L-arginine.

Counter-ions that a name gives are not always drawn.

Turning to `O=C1C=C(c2ccco2)C(CO)[n+]2cc([O-])c(Cc3ccco3)cc21` (stereo not drawn) [3-(2-furyl)-8-[(2-furyl)methyl]-4-hydroxymethyl-1-oxo-1H,4H-quinolizinium-7-olate], the “bitter taste detection threshold” value in experiment [1] is 0.00025 mmol/kg water.

As to `Cn1c(=O)c2c(ncn2C)n(C)c1=O` [Caffeine, reference compound], the Bitter taste intensity in experiment [2] (Caffeine 4 mmol/L water, no Glypyridaine) stood at 3; in [2] (Caffeine 8 mmol/L water, no Glypyridaine), 4.5; in experiment [2] (Caffeine 16 mmol/L water, no Glypyridaine) it was 5.

As to `O=C([O-])CCC[n+]1cc(O)ccc1CO` [Gabapyridaine], the own taste entry in experiment [3] was “tasteless”. Further, the Taste quality result in experiment [3] (pH 7.0) was “complete loss of the bitter taste”.

With `O=C([O-])C[n+]1cc(O)ccc1CO` [Glypyridaine, N-carboxymethyl-3-hydroxy-6-hydroxymethyl-pyridinium inner salt], the Salt detection threshold in experiment [4] (mixture with NaCl, pH 7.0) worked out at 2.0 mmol/kg water. For the same compound, the Taste quality result is given as “salty” in [4] (mixture with NaCl, pH 7.0) and “complete loss of the bitter taste” in experiment [3] (pH 7.0). Moreover, in experiment [4] (mixture with NaCl, pH 7.0, vs NaCl in water 10.0 mmol/L), the Threshold decrease came out at 5.0. Also, the Bitter taste intensity in experiment [5] (L-Phenylalanine 20 mmol/L water, ratio to Glypyridaine 1:1, scale 0-5) came out at 0; in experiment [5] (L-Phenylalanine 20 mmol/L water, ratio to Glypyridaine 10:1, scale 0-5) it was 0.5; in experiment [5] (L-Phenylalanine 40 mmol/L water, ratio to Glypyridaine 1:1, scale 0-5), 0; in [5] (L-Phenylalanine 40 mmol/L water, ratio to Glypyridaine 10:1, scale 0-5) it was 2; in [5] (L-Phenylalanine 80 mmol/L water, ratio to Glypyridaine 1:1, scale 0-5) it was 0.5; in [5] (L-Phenylalanine 80 mmol/L water, ratio to Glypyridaine 10:1, scale 0-5) it was 3. Besides, the Bitter taste intensity in experiment [6] (Naringine 0.06 mmol/L water, ratio to Glypyridaine 1:1) worked out at 1; in experiment [6] (Naringine 0.13 mmol/L water, ratio to Glypyridaine 1:1), 2; in experiment [6] (Naringine 0.25 mmol/L water, ratio to Glypyridaine 1:1), 3; in [8] (Salicine 0.8 mmol/L water, ratio to Glypyridaine 1:1), 1; in experiment [8] (Salicine 1.6 mmol/L water, ratio to Glypyridaine 1:1), 2; in experiment [8] (Salicine 3.2 mmol/L water, ratio to Glypyridaine 1:1), 3. The Bitter taste intensity amounted to 0.5 in [2] (Caffeine 4 mmol/L water, ratio to Glypyridaine 1:1); 1.5 in experiment [2] (Caffeine 4 mmol/L water, ratio to Glypyridaine 5:1); 1.5 in [2] (Caffeine 8 mmol/L water, ratio to Glypyridaine 1:1); 2 in experiment [2] (Caffeine 8 mmol/L water, ratio to Glypyridaine 5:1); 2 in [2] (Caffeine 16 mmol/L water, ratio to Glypyridaine 1:1); 3 in [2] (Caffeine 16 mmol/L water, ratio to Glypyridaine 5:1). Further, the Bitter taste intensity in experiment [9] (H-Gly-Leu-OH 30 mmol/L water, ratio to Glypyridaine 2:1) stood at 0.5; in experiment [9] (H-Gly-Leu-OH 30 mmol/L water, ratio to Glypyridaine 10:1), 2; in experiment [9] (H-Gly-Leu-OH 60 mmol/L water, ratio to Glypyridaine 2:1), 1; in experiment [9] (H-Gly-Leu-OH 60 mmol/L water, ratio to Glypyridaine 10:1), 3; in experiment [9] (H-Gly-Leu-OH 120 mmol/L water, ratio to Glypyridaine 10:1), 4. Moreover, the “bitter taste intensity of coffee” value in experiment [7] stood at 2. In addition, the own taste result in experiment [3] was “tasteless”.

For the compound `N=C(N)NCCC[C@H](N)C(=O)O` [L-Arginine (L-Arg), L-Arginine], in experiment [10], the Salt-intensity is on record as 0.0.

`N[C@@H](Cc1ccccc1)C(=O)O` [L-Phenylalanine, reference compound]: the Bitter taste intensity in experiment [5] (L-Phenylalanine 20 mmol/L water, no Glypyridaine, scale 0 no bitterness to 5 strongly bitter) was 2; in experiment [5] (L-Phenylalanine 40 mmol/L water, no Glypyridaine, scale 0-5) it was 4; in experiment [5] (L-Phenylalanine 80 mmol/L water, no Glypyridaine, scale 0-5), 5. Moreover, the Taste quality entry in [3] (pH 7.0) was “bitter”. Further, the Detection threshold in experiment [3] (pH 7.0) turned out to be 16.0 mmol/L water.

With `[Cl-].[Na+]` [NaCl, sodium chloride, reference compound], the Taste quality entry in [10] is reported as “salty”; in experiment [4] (salt and mixtures with Alapyridaine enantiomers (Table 11), pH not stated) it was “salty”. In experiment [10], the Salt-intensity is 1.0. Further, the “threshold of salt (NaCl) in water” value in experiment [4] (NaCl alone) is given as “^aThe threshold of salt (NaCl) in water is 10.0 mmol/L”. For the same compound, the Detection threshold in experiment [4] (salty, salt and mixtures with Alapyridaine enantiomers (Table 11), pH not stated) was 10.0 mmol/kg water.

Consider `C[C@@H]1O[C@@H](O[C@H]2[C@H](Oc3cc(O)c4c(c3)O[C@H](c3ccc(O)cc3)CC4=O)O[C@H](CO)[C@@H](O)[C@@H]2O)[C@H](O)[C@H](O)[C@H]1O` [Naringine, reference compound], for which the Bitter taste intensity in experiment [6] (Naringine 0.06 mmol/L water, no Glypyridaine) came to 2.5; in [6] (Naringine 0.13 mmol/L water, no Glypyridaine) it was 4; in experiment [6] (Naringine 0.25 mmol/L water, no Glypyridaine) it was 5.

Consider `OCc1ccccc1O[C@@H]1O[C@H](CO)[C@@H](O)[C@H](O)[C@H]1O` [Salicine, reference compound], for which the Bitter taste intensity in experiment [8] (Salicine 0.8 mmol/L water, no Glypyridaine) was 3; in experiment [8] (Salicine 1.6 mmol/L water, no Glypyridaine) it was 4.5; in experiment [8] (Salicine 3.2 mmol/L water, no Glypyridaine), 5.

`O=C([O-])CC[n+]1cc(O)ccc1CO` [β-Alapyridaine]: the own taste result in [3] is “tasteless”. Also, the Taste quality entry in experiment [3] (pH 7.0) was “complete loss of the bitter taste”.

As for H-Gly-Leu-OH [reference compound], the Bitter taste intensity stood at 2.5 in experiment [9] (H-Gly-Leu-OH 30 mmol/L water, no Glypyridaine); 3.5 in [9] (H-Gly-Leu-OH 60 mmol/L water, no Glypyridaine); 5 in experiment [9] (H-Gly-Leu-OH 120 mmol/L water, no Glypyridaine).
